For 1 molecule, Ames testing results are on record in patent publication US7557211B2, “8H-imidazo[4,5-D]thiazolo[4,5-B]pyridine based tricyclic compounds and pharmaceutical compositions comprising same” (Bristol-Myers Squibb Company, priority 2004, dated 2009).

The subject of the series is T98. In words: Ames testing. Type of series: cell-based. The conditions noted are these: T98 with S9 activation. Here is the method:
A60.7 (370 mg) was dissolved in trifluoroacetic acid and stirred at 50° C. for 2h and 45 min. then at 60° C. for 2 h, then overnight at room temperature. The solvent was removed under reduced pressure and co-evaporated with diethyl ether (2×). Ether (˜20 mL) was added and the mixture sonicated for 1 min. The crude product was collected by filtration and rinsed with an additional portion of ether and dried under vacuum to yield 130 mg of a pale yellow solid. The crude product was washed with several portions of saturated aqueous sodium bicarbonate then water and dried under vacuum. The crude product was purified by automated reverse phase HPLC. The appropriate fractions were combined and azeotroped with heptane to produce 43 mg of a pale yellow solid. The solid was treated with a few milliliters of saturated aqueous sodium bicarbonate solution rinsed with water and dried under vacuum over phosphorus pentoxide and subsequently rinsed with several portions of diethyl ether and dried to yield 36 mg of the desired product. (Caution: This material was subjected to Ames testing and found to be positive in T98 with S9 activation. Suitable precautions should be taken in handling this material) 1H NMR 400 MHz d^6DMSO δ: 8.26 s, 1H, 8.14-8.07 m, 2H, 7.62-7.53, m, 3H, 6.90-6.80, br s, 2H, 4.02, s, 3H.
(In the Ames test, an excess of revertant colonies over the control signals mutagenicity.)

The structures appear in SMILES notation.

As to `Cn1cnc2c(N)nc3nc(-c4ccccc4)sc3c21` [Example A60, 8-methyl-2-phenyl-8H-imidazo[4,5-d]thiazolo[4,5-b]pyridin-5-amine], the Ames testing entry was “positive”.
